Data on 14 compounds can be found in patent US5998420A, “Method for treating Mycobacterium tuberculosis” (priority 1996, dated 1999).

≈ marks a conversion by molar mass, not a printed value. Read-outs that look alike come from different tables or passages of the source.

Series [1] has as its system Mycobacterium tuberculosis. Particulars: Heifets L. B. (1994); cited from earlier work.
For series [2], the system named is Mycobacterium tuberculosis. Conditions: cited from earlier work; for change in final colony forming units vs starting: Klemens et al., 1994.
The conditions of series [3]: cited from earlier work; for decomposition (retro-aldol): in the presence of divalent metals, unpublished observation.
In series [4] the test system is yeast isopropylmalate isomerase. Conditions: cited from earlier work; for inhibition of yeast isopropylmalate isomerase, 19 vs 21: fully ionized, nitronate forms.
The test system of the next series is plants. Particulars: leucine alone; cited from earlier work.
A further series has as its system yeast. Conditions: minimal media; cited from earlier work.
For series [5], the system named is Mycobacterium tuberculosis strain RC1. The series can be described thus: MIC by agar dilution, M. tuberculosis strain RC1. The series is classed as cell-based. Conditions: for MIC: Mycobacterium tuberculosis, RC1; for effect of LIV addition on toxicity, strain RC1: strain RC1, LIV added. In general terms: Agar dilution tests growth on a series of plates holding different concentrations.

The format of series [6] is in vivo, CD-1 female mice. Conditions: 500 mg/kg body weight subcutaneous each day for 30 days. As for the experimental part:
To determine if high doses of sulfometuron methyl would be toxic to mice, a 20 mg/ml solution of this compound was prepared in phosphate buffered saline and 0.5 ml of this was injected subcutaneously into 4 day-old CD-1 female mice each day for 30 days. This dose corresponded to 500 mg sulfometuron methyl/kg body weight of the mouse. After the 30-day course of treatment the mice were sacrificed and the internal organs were examined by a veterinarian trained in laboratory animal care. The organs were compared to a control group that received injections of phosphate buffered saline.

Series [7] concerns Mycobacterium tuberculosis strain ATCC35801. Description: MIC by agar dilution, M. tuberculosis strain ATCC35801. The format is cell-based. Conditions: for MIC: Mycobacterium tuberculosis, ATCC35801; for effect of LIV addition on toxicity, strain ATCC35801: strain ATCC35801, LIV added.
Series [8] shares this test system. Description: Tuberculosis mouse model study, colony forming units in lungs and spleens. The series is classed as in vivo, mice.
The test system of series [9] is E. coli ketol-acid reductoisomerase. Particulars: cited from earlier work.
In series [10] the test system is acetolactate synthase from E. coli. Particulars: 1 mM; cited from earlier work.
The subject of series [11] is E. coli ketol-acid reductoisomerase. Conditions: presence of Mg2+ and NADPH; read-out: overall dissociation constant; cited from earlier work.
Series [12] concerns ketol-acid reductoisomerase. Particulars: cited from earlier work.
The test system of series [13] is dihydroxy acid dehydratase from E. coli. Particulars: 1 mM; cited from earlier work.
The subject of the next series is E. coli. Conditions: minimal media; cited from earlier work.
Series [14] relates to ketol-acid reductoisomerase from carrot (plant). Particulars: cited from earlier work.
Another series deals with K. pneumoniae. Conditions: cited from earlier work.
The test system of a further series is carrot cells. Conditions: branched chain amino acids; cited from earlier work.
Series [15] concerns ketol-acid reductoisomerase from Klebsiella pneumoniae. Conditions: cited from earlier work.
The mark [16] stands for this setting: leucine, isoleucine, and valine added (+LIV), read-out: MIC +LIV, strain RC1.
The mark [17] stands for this setting: no branched chain amino acids (-LIV), read-out: MIC -LIV, strain RC1.
Setting [18] is: leucine, isoleucine, and valine added (+LIV).
The mark [19] stands for this setting: no branched chain amino acids (-LIV).

For the compound `CO[C@H]1/C=C/O[C@@]2(C)Oc3c(C)c(O)c4c(O)c(c(/C=N/N5CCN(C)CC5)c(O)c4c3C2=O)NC(=O)/C(C)=C\C=C\[C@H](C)[C@H](O)[C@@H](C)[C@@H](O)[C@@H](C)[C@H](OC(C)=O)[C@@H]1C` [Rifampicin], the “MIC of first-line anti-tuberculosis drugs” value in series [1] is 0.5 µg/mL. Also, the “change in final colony forming units vs starting” value (“change” below) in [2] is recorded as “caused a decrease”.

For `NNC(=O)c1ccncc1` [Isoniazid], the “MIC of first-line anti-tuberculosis drugs” value in series [1] was 0.2 µg/mL. The “Mycobacterium tuberculosis in spleens and lungs of mice” value in series [2] (25 mg/kg (Lalande et al., 1993)) is on record as “significantly reduced”. The “change” value in [2] was “caused a decrease”.

In the case of `O=C(O)C1(O)CCCC1[N+](=O)[O-]` (centres unmarked) [Compound 21], the “stability of the molecule” value in series [3] (cyclopentane ring of 21) was “insures stability of the molecule”. Further, the “inhibition of yeast isopropylmalate isomerase, 19 vs 21” value in [4] was “comparable”. The “inhibition of isopropylmalate isomerase, 21 vs 19” value in series [4] (physiological conditions (pH 7)) is “much more potent inhibitor than 19”. Further, the “reversal of herbicidal activity” value with plants was “reversed by leucine alone”.

Turning to `CC(C)C(O)(C[N+](=O)[O-])C(=O)O` (centres unmarked) [Compound 20], the “decomposition (retro-aldol)” value in [3] is given as “rapid rate”. Moreover, in series [4], the “inhibition of yeast isopropylmalate isomerase” value was “potent inhibitors”. The growth of yeast entry in the series with yeast is given as “no affect”.

As for `COC(=O)c1ccccc1S(=O)(=O)NC(=O)Nc1nc(C)cc(C)n1` [SM, sulfometuron methyl], the MIC in series [5] (setting [16]) was 1.8 µg/mL (≈ 4.94 µM); in [5] (setting [17]) it was 0.3 µg/mL (≈ 0.823 µM); in series [5] (read-out: minimum inhibitory concentration, medium supplemented with bovine serum albumin), 4.4 µg/mL (≈ 12.1 µM); in series [5] (read-out: minimum inhibitory concentration, medium supplemented with sodium oleate and bovine serum albumin) it was 2.2 µg/mL (≈ 6.04 µM); in series [7] (setting [18]), greater than 3.6 µg/mL; in series [7] (setting [19]), 3.6 µg/mL (≈ 9.88 µM). In series [5], the “effect of LIV addition on toxicity, strain RC1” value (shortened to “effect … strain RC1”) was “partially reduced the toxicity”. Moreover, the “effect of isoleucine and valine addition on inhibition” value in series [5] (strain RC1, isoleucine and valine added) is reported as “did not prevent inhibition”. The “behavior of the mice and condition of the internal organs vs PBS” value in [6] is listed as “No significant differences”. The “effect of LIV addition on toxicity, strain ATCC35801” value in [7] is reported as “prevented the toxicity”. Further, the “Mann-Whitney U test, 2-tailed P, lungs” value came to 0.31 in series [8] (20 mg/kg and 100 mg SM/kg); 0.002 in series [8] (20 mg/kg and 500 mg SM/kg); 0.009 in series [8] (100 mg/kg and 500 mg SM/kg); 0.39 in series [8] (PBS and 20 mg SM/kg); 0.65 in series [8] (PBS and 100 mg SM/kg); 0.03 in series [8] (PBS and 500 mg SM/kg). Further, the “mice with more than 200 colony forming units in the lungs” value in series [8] (500 mg sulfometuron methyl/kg, lungs, 31 days) is recorded as “none”. In addition, the “mice with more than 10^3 colony forming units/spleen, 500 mg/kg” value in series [8] (500 mg sulfometuron methyl/kg, spleen) came to 13%. Moreover, the “growth of Mycobacterium tuberculosis in the lungs” value in [8] (500 mg/kg body weight) was “significantly reduced growth”. For the same compound, the “growth of Mycobacterium tuberculosis in a mouse model system” value in [8] (mouse, in vivo) was “inhibites growth”. The “Kruskal-Wallis test, P, spleen” value in [8] (overall difference between four groups, spleen, P < 0.05 considered significant) is greater than 0.05. Also, the “mice with more than 10^3 colony forming units in the lungs” value in series [8] (pooled groups PBS, 20 mg/kg and 100 mg/kg SM, lungs, 31 days) is given as 65%. The “mice with over 10^3 colony forming units/spleen, pooled groups” value in series [8] (pooled groups PBS, 20 mg/kg and 100 mg/kg SM, spleen) came to 52%.

Turning to `[H]/N=C(/N)N[C@H]1[C@H](O)[C@@H](O)[C@H](O[C@@H]2O[C@@H](C)[C@](O)(C=O)[C@H]2O[C@@H]2O[C@@H](CO)[C@H](O)[C@@H](O)[C@@H]2NC)[C@@H](N/C(N)=N\[H])[C@@H]1O` [Streptomycin], the “MIC of first-line anti-tuberculosis drugs” value in [1] is 3 µg/mL.

`O=C(O)C(=O)N(O)Cc1ccccc1` [Compound 13]: the “association rate for the inhibitor, benzyl (13) vs hydrogen (9) on nitrogen” value in series [9] (relative to 9) is on record as “increased the association rate for the inhibitor modestly”.

Regarding `CC(C)N(O)C(=O)C(=O)O` [IpOHA, N-Isopropyloxayl hydroxamate], in [10], the “effect on acetolactate synthase” value was “no effect”. For the same compound, the Kd in series [11] was 0.02 nM. Also, the “inhibition of ketol-acid reductoisomerase” value in [12] is on record as “potent inhibitors”. The MIC is 9.2 µg/mL (≈ 62.5 µM) in series [5] (setting [16]), 9.2 µg/mL (≈ 62.5 µM) in series [5] (setting [17]), greater than 18 µg/mL in series [7] (setting [18]) and 18 µg/mL (≈ 122 µM) in series [7] (setting [19]). The “effect … strain RC1” value in series [5] was “did not reverse the toxic effects”. Moreover, the “effect of LIV addition on toxicity, strain ATCC35801” value in series [7] is “decreased the toxicity”. In addition, the “effect on dihydroxy acid dehydratase” value in series [13] is “no effect”.

Consider `COc1nc(C)nc(NC(=O)NS(=O)(=O)c2ccccc2Cl)n1` [Chlorsulfuron], for which the MIC in [5] (setting [16]) is greater than 35 µg/mL; in series [5] (setting [17]), 4.4 µg/mL (≈ 12.3 µM). Also, in series [5], the “effect … strain RC1” value is “completely reversed the effects”.

Regarding `CC[C@@H](CO)NCCN[C@@H](CC)CO` [Ethambutol], in series [1], the “MIC of first-line anti-tuberculosis drugs” value is 2 µg/mL. For the same compound, in series [2], the “change” value is listed as “did not cause a decrease”.

In the case of `CCCCCCCCCCCCN(O)C(=O)C(=O)O` [Compound 14], the “potency relative to 13” value in series [9] (12-carbon chain on nitrogen, Aulabaugh & Schloss, unpublished) is “comparable in potency to 13”.

Regarding `NC(=O)c1cnccn1` [Pyrazinamide], the “MIC of first-line anti-tuberculosis drugs” value in [1] is 16 µg/mL. In series [2], the “change” value is given as “did not cause a decrease”.

For `CP(C)(=O)C(O)C(=O)O` (centres unmarked) [Hoe 704, 2-dimethylphosphinoyl-2-hydroxy acetic acid], in the series on E. coli, the “growth inhibition of E. coli” value was “does not inhibit the growth”. The “inhibition of carrot ketol-acid reductoisomerase” value in [14] is “potent and selective inhibitor”. The “reversal of growth inhibitory effect on K. pneumoniae” value with K. pneumoniae (branched chain amino acids and pantoate) was “requires both branched chain amino acids and pantoate”. For the same compound, the “growth of K. pneumoniae” value in the series on K. pneumoniae is recorded as “does inhibit the growth”. The “reversal of effect on carrot cells in culture” value with carrot cells is reported as “can be reversed by branched chain amino acids alone”. The “inhibition of ketol-acid reductoisomerase” value in [12] is listed as “potent inhibitors”. For the same compound, in series [9] (Hoe 704), the “inhibition of E. coli ketol-acid reductoisomerase” value is “potent and selective inhibitor”. In addition, the MIC in [5] (setting [17]) was greater than 37 µg/mL. For the same compound, the “inhibition of Klebsiella pneumoniae ketol-acid reductoisomerase” value in series [15] was “potent and selective inhibitor”.

With `CC(C)C(C(O)C(=O)O)[N+](=O)[O-]` (centres unmarked) [Compound 19], the “decomposition (retro-aldol)” value in series [3] was “rapid rate”. In addition, in [4], the “inhibition of yeast isopropylmalate isomerase” value is “potent inhibitors” and the “inhibition of yeast isopropylmalate isomerase, 19 vs 21” value is “comparable”. For the same compound, the growth of yeast result in the series on yeast is “no affect”.
